Measured values reported in US6617336B1, “2-arylquinoline derivatives, preparation and therapeutic use thereof” (Sanofi-Synthelabo, priority 1999, dated 2003).

melting point: 68 °C
SMILES: Cc1cc2cccc([C@H](CO)N3CCCC[C@H]3C)c2nc1-c1ccccc1.Cl
